Test system: Leptosphaeria nodosum
Assay: In vivo comparative test on Leptosphaeria nodoruin (wheat)/preventive
Settings: dose of 500 ppm, preventive, evaluated 10 days after the inoculation
Procedure: Solvent: 49 parts by weight of N,N-dimethylacetamide Emulsifier: 1 part by weight of alkylaryl polyglycol ether To produce a suitable preparation of active compound, 1 part by weight of active compound or the compound combination is mixed with the stated amounts of solvent and emulsifier, and the concentrate is diluted with water to the desired concentration. To test for protective activity, young plants are sprayed with a preparation of active compound or active compound combination at the stated rate of application. After the spray coating has dried on, the plants are sprayed with a spore suspension of Leptosphaeria nodosum. The plants remain for 48 hours in an incubation cabinet at 20° C. and a relative atmospheric humidity of 100%. The plants are placed in a greenhouse at a temperature of approximately 15° C. and a relative atmospheric humidity of approximately 80%. The test is evaluated 10 days after the inoculation. 0% means an efficacy which corresponds to that of the control, while an efficacy of 100% means that no disease is observed. […]

In the case of `Cn1cc(C(=O)N[C@@H]2C[C@@H]2c2ccc(Cl)cc2)c(C(F)F)n1` (relative stereo) [Example 1.001, cis-N-[2-(4-chlorophenyl)cyclopropyl]-3-(difluoro-methyl)-1-methyl-1H-pyrazole-4-carboxamide], the disease control is reported as “less than 10%”.

From US8372982B2, “Fungicidal N-(Phenylcycloalkyl)carboxamide, N-(Benzylcycloalkyl)carboxamide and thiocarboxamide derivatives” (Bayer Cropscience AG, priority 2009, dated 2013)
